Reference: publication PMC7617978, “Anti-trypanosomal quinazolines targeting lysyl-tRNA synthetases show partial efficacy in a mouse model of acute Chagas disease” (Science translational medicine, 2025)
Where two headings read alike, the source gives them in different places.

What was measured:
[1] = system: T. cruzi (Sylvio X10/7A1 strain) intracellular amastigote (in Vero cells); test: microbe, parasite or virus in culture; assay type: cell-based; details: for EC50: Trypanosoma cruzi, Vero; for Fold-shift (relative to WT): intracellular amastigote in Vero cells
hERG channel = molecular target: T1, hERG channel (Homo sapiens, UniProt Q12809); test: In vitro hERG fluorescence polarization assay; assay type: binding; details: read-out: hERG inhibition (IC50 value)
T1 construct: purchased Invitrogen
T1 sequence (Q12809 whole entry): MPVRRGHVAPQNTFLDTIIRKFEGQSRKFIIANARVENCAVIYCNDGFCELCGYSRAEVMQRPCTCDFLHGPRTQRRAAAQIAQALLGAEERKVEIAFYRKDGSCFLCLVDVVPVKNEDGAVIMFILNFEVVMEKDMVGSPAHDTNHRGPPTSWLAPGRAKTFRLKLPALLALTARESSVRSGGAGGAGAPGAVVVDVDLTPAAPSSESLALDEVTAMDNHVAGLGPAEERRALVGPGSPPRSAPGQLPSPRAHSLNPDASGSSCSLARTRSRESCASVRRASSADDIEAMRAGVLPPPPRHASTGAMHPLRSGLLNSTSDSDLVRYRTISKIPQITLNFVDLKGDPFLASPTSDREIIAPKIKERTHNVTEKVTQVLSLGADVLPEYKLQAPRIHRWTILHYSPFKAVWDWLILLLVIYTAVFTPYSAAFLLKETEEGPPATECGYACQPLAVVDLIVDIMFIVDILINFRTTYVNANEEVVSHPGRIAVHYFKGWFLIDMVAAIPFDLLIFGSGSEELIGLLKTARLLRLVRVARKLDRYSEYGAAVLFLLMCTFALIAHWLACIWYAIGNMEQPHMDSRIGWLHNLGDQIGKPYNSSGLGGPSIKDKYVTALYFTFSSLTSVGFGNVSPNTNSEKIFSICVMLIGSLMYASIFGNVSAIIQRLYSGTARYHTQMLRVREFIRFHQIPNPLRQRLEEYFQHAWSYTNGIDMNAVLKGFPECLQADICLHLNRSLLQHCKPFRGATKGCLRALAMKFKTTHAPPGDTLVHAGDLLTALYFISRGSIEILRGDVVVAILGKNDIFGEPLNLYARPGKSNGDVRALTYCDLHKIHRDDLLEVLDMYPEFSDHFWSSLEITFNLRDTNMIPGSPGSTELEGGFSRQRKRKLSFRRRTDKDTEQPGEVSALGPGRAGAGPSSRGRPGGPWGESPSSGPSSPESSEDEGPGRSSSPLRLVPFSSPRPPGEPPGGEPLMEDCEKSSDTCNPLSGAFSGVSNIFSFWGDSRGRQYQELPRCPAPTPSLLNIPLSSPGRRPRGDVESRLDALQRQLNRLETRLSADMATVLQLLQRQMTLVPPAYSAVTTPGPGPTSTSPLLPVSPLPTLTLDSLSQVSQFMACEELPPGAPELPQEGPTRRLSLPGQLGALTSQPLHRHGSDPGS
Method: In vitro hERG fluorescence polarization assay
Compounds were assessed for potential hERG channel inhibition using the Predictor® hERG Fluorescence Polarization Assay Kit (Invitrogen), as per manufacturer’s instructions.
Compounds were screened with test compounds at concentrations ranging from 0.0003 – 30
µM. Fluorescence polarization was measured using EnVision plate reader fitted with polarized filters (excitation: 531 nm; emission: 595 nm). IC50 values were determined using GraphPad

CYP2C19 = CYP2C19 (Homo sapiens, UniProt P33261); test: In vitro CYP inhibition, 2C19; assay type: in vitro ADME
CYP2C19, sequence (P33261 whole entry, species assumed, canonical isoform): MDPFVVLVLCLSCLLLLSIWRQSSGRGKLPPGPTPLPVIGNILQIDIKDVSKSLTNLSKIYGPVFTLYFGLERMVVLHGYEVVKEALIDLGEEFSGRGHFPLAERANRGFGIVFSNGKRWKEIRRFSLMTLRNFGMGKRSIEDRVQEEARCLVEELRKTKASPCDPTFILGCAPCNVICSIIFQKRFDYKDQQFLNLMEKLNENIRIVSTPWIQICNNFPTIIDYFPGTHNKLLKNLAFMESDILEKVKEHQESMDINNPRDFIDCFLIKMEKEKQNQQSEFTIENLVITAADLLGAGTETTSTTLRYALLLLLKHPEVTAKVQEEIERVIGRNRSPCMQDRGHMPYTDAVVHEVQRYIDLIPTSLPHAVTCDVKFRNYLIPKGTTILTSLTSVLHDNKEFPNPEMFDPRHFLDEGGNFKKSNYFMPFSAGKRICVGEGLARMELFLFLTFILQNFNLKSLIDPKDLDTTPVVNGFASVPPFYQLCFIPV
Method: (§1) Compounds were screened for CYP inhibition activity using the protocol established by TCG Lifesciences (India). The activity of five CYP450 isoforms: 1A2; 2C9; 2D6, 3A4; and 2C19 was monitored in the presence of test or control (miconazole) compounds at 10 µM. Reactions were terminated after 10 min (30 min for CYP2C19) by the addition of acetonitrile, centrifuged and analysed via LC-MS/MS. […]

human KRS = molecular target: T2, human KRS (Homo sapiens, UniProt Q15046); test: Human KRS inhibition assay using BIOMOL Green; assay type: biochemical; details: for IC50: recombinant HsKRS, 3.5 μM ATP, 6 μM L-lysine, read-out: IC50 values (95% CI)
T2 construct: made in house
T2 sequence (Q15046 whole entry): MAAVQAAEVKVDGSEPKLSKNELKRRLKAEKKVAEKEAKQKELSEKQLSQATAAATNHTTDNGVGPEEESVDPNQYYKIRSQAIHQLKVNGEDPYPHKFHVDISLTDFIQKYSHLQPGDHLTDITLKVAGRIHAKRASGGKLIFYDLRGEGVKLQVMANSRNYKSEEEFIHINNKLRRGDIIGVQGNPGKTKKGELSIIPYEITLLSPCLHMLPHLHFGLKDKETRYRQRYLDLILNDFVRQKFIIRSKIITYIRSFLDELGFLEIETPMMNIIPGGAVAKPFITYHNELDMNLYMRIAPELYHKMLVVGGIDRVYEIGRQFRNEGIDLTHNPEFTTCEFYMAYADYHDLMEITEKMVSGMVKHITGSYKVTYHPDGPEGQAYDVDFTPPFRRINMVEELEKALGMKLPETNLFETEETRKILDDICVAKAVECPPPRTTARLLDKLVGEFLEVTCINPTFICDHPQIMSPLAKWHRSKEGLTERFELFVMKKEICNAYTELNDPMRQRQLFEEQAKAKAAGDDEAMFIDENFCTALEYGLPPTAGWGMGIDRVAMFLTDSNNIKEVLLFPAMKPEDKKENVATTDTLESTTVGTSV
Method: Cloning, expression and purification of recombinant HsKRS has been described previously ([21]).
The enzymatic activity of recombinant KRS was determined by monitoring the concentration of pyrophosphate released during the first step of the reaction catalyzed by recombinant TcKRS1. The pyrophosphate formed was converted to two inorganic phosphate molecules using a pyrophosphatase enzyme and concentrations of the resulting phosphate were measured using the BIOMOL Green reagent (Enzo Life Sciences). All screening assays were performed in 384-well, clear, flat-bottom plates (Greiner) at room temperature (~23°C) in 50 μl reaction volumes.
To generate IC50 data for test compounds, 10-point inhibitor dose-response curves were prepared in 384-well assay plates using an ECHO 550 acoustic dispenser (Labcyte).
All assays were performed by adding 25 μl of assay buffer with enzyme to compound-containing assay wells before the reaction was initiated with the addition of a 25 μl substrate mixture containing L-lysine, ATP and pyrophosphatase. […] Following a 6–h reaction at room temperature, the assays were stopped by the addition of 50 μl BIOMOL Green. The BIOMOL Green signal was allowed to develop for 30 min before the absorbance of each well was read at 650 nm using a PheraStar plate reader (BMG). All liquid-dispensing steps were carried out using a Thermo Scientific WellMate dispenser (Matrix).
All IC50 curve fitting was undertaken using ActivityBase XE (version 7.7.1) from IDBS. Percentage inhibition curves for TcKRS1 and human KRS, were fitted to a four-parameter logistic dose-response equation (XLfit model 203), with pre-fitting for all four parameters, using the equation below, where A is no inhibition, B is maximum inhibition, C is the Log10 (IC50), D is the Hill slope and x is the inhibitor concentration. […]

[2] = system: L. donovani (LdBOB) promastigote; test: Drug sensitivity assay, L. donovani promastigotes; assay type: cell-based; details: for EC50: Leishmania donovani
[3] = system: T. cruzi (Sylvio X10/7A1 strain) epimastigote; test: microbe, parasite or virus in culture; assay type: cell-based; details: for EC50: Trypanosoma cruzi; for Fold-shift (relative to WT): epimastigote
CYP2C9 = CYP2C9 (Homo sapiens, UniProt P11712); test: In vitro CYP inhibition, 2C9; assay type: in vitro ADME
CYP2C9, sequence (P11712 whole entry): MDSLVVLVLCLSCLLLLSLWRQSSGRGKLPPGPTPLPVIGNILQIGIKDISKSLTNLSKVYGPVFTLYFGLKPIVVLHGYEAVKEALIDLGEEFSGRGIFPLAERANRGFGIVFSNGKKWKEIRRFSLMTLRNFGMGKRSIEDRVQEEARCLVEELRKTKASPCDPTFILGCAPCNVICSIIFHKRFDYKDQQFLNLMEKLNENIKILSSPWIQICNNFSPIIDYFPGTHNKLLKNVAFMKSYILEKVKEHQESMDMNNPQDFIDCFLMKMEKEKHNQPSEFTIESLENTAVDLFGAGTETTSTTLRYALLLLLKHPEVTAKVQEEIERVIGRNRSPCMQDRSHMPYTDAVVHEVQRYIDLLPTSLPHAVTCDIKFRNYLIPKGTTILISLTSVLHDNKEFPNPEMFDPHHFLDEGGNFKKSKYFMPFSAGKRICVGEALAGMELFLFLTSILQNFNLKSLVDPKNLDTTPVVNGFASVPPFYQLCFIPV
Method: as §1

CYP1A2 = CYP1A2 (Homo sapiens, UniProt P05177); test: In vitro CYP inhibition, 1A2; assay type: in vitro ADME
CYP1A2, sequence (P05177 whole entry): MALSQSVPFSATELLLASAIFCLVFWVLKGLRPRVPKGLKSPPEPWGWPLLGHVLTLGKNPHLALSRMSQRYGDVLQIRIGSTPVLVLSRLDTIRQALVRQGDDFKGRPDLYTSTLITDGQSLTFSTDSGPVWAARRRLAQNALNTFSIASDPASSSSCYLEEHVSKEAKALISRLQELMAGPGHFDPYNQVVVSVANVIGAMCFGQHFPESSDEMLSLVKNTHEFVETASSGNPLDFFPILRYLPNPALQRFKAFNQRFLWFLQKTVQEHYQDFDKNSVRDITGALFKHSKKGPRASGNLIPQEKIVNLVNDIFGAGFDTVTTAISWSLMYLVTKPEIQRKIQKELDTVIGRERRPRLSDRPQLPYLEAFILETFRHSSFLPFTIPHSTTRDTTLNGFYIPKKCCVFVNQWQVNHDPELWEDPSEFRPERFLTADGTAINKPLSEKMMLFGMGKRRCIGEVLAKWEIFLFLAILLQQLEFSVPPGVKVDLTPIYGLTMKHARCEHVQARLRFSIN
Method: as §1

T. b. rhodesiense = test: Drug sensitivity assay, T. b. rhodesiense bloodstream forms; assay type: cell-based; details: Trypanosoma brucei, read-out: EC50 value
[4] = system: L. donovani (MHOM-ET-67/L82) axenic amastigote; test: Drug sensitivity assay, L. donovani axenic amastigotes; assay type: cell-based; details: Leishmania donovani, WT
T. b. brucei BSF = test: Drug sensitivity assay, T. b. brucei bloodstream forms; assay type: cell-based; details: for EC50: Trypanosoma brucei
[5] = system: T. cruzi (Tulahuen strain) intracellular amastigote (in L6 cells); test: Drug sensitivity assay, T. cruzi (Tulahuen)-infected L6 rat skeletal myoblasts; assay type: cell-based; details: Trypanosoma cruzi
Method: T. cruzi epimastigotes of the Silvio strain (MHOM/BR/78/Silvio; clone X10/7A) were maintained at 28°C in RPMI 1640 medium (Merck) supplemented with trypticase peptone (4.9 mg/ml), HEPES (20 mM), haemin (20 μg/ml), and foetal bovine serum (FBS, 10%), as previously described ([29]). T. cruzi metacyclic trypomastigotes were obtained and maintained, as previously described ([29]). Briefly, late-log epimastigotes were seeded at 10^6 cells/ml in RTH/FBS and differentiated into trypomastigotes after 7 days at 28°C. Vero cells were infected with trypomastigotes for 12 hours in Dulbecco modified Eagle medium (DMEM) supplemented with 5% FBS, at 37°C in the presence of 5% CO2. Infected Vero cells were washed 3× with DMEM/FBS to remove extracellular parasites, and medium was replaced every two days until trypomastigotes re-emerged. Three rounds of infection were performed before trypomastigotes were harvested for drug sensitivity assays. For drug sensitivity assays carried out at the Swiss Tropical Institute, a T. cruzi cell line (Tulahuen C2C4) expressing the β-galactosidase gene LacZ was propagated in L6 rat skeletal myoblasts (ATCC CRL-1458) as previously described ([37]).
Drug sensitivity assays with T. cruzi (Tulahuen)-infected L6 rat skeletal myoblasts were carried out as previously described ([37]).

[6] = read-out: EC50 value, KRS1 OE, intracellular amastigote in Vero cells
[7] = read-out: EC50 value, KRS1 S319L, intracellular amastigote in Vero cells
[8] = read-out: EC50 value, WT, intracellular amastigote in Vero cells
[9] = KRS1 OE, promastigote, read-out: EC50 value
[10] = WT, promastigote, read-out: EC50 value
[11] = read-out: EC50 value, KRS1 S324L, promastigote
[12] = read-out: EC50 value, KRS1 OE (overexpressing), epimastigote
[13] = read-out: EC50 value, KRS1 S319L, epimastigote
[14] = read-out: EC50 value, WT, epimastigote
[15] = KRS1 OE, BSF, read-out: EC50 value
[16] = read-out: EC50 value, KRS1 S319L (as printed in Table S1), BSF

Structure (SMILES)	EC50 [1, 6] [nM]	EC50 [1, 7] [nM]	EC50 [1, 8] [nM]	IC50 (hERG channel) [nM]	inhibition at 30 min, 10 µM (CYP2C19) [%]	extent of inhibition of the human KRS1 enzyme (human KRS)	IC50 (human KRS) [nM]	EC50 [2, 9] [nM]	EC50 [2, 10] [nM]	EC50 [2, 11] [nM]	EC50 [3, 12] [nM]	EC50 [3, 13] [nM]	EC50 [3, 14] [nM]	inhibition at 10 min, 10 µM (CYP2C9) [%]	inhibition at 10 min, 10 µM (CYP1A2) [%]	EC50 [4] [nM]	EC50 (T. b. brucei BSF; [15]) [nM]	EC50 (T. b. brucei BSF; WT, BSF, read-out: EC50 value) [nM]	EC50 (T. b. brucei BSF; [16]) [nM]	further results
Cc1nc(N)c2c(F)c(F)c(NC3CCCC3)c(F)c2n1 [DMU371, N7-Cyclopentyl-5,6,8-trifluoro-2-methylquinazoline-4,7-diamine]	888 ± 117	589 ± 57	205 ± 24	7600 ± 1300	6.1 ± 1.3	partial inhibition	9800	1860 ± 63	524 ± 9	1740 ± 49	624 ± 14	326 ± 26	63 ± 2.4	8.6 ± 0.6	74.8 ± 0.5	5320 ± 2780	4250 ± 170	607 ± 9	1870 ± 71	EC50 (T. b. rhodesiense): 1090 ± 420 nM; EC50 ([5]; TULAHUEN, L6, read-out: EC50 value): 233 ± 86 nM
Cc1nc(N)c2c(F)c(F)c(SC3CCCCC3)c(F)c2n1 [DMU759, 7-(Cyclohexylthio)-5,6,8-trifluoro-2-methylquinazolin-4-amine]	121 ± 19	1540 ± 130	16 ± 1	12200 ± 1100	12.8 ± 2.8	partial inhibition	7170	1470 ± 56	115 ± 0.1	1320 ± 32	134 ± 3	565 ± 41	14 ± 0.3	7.9 ± 0.8	61.5 ± 0.9	284 ± 20	1060 ± 33	112 ± 0.8	6480 ± 360	Fold-shift (relative to WT) ([1]; KRS1 OE): 8 fold; Fold-shift (relative to WT) ([1]; KRS1 S319L): 97 fold; Fold-shift (relative to WT) ([2]; KRS1 OE, promastigote): 13 fold; Fold-shift (relative to WT) ([2]; KRS1 S324L, promastigote): 12 fold; Fold-shift (relative to WT) ([3]; KRS1 OE): 10 fold; Fold-shift (relative to WT) ([3]; KRS1 S319L): 41 fold; resistance conferred by mutation of a single amino acid in the KRS1 active site ([3]; in vitro, parasite not stated (discussion)): > 20 fold; EC50 (T. b. rhodesiense; WT, BSF): 313 ± 183 nM; Fold-shift (relative to WT) (T. b. brucei BSF; KRS1 OE, BSF): 9 fold; Fold-shift (relative to WT) (T. b. brucei BSF; KRS1 serine-to-leucine mutant (S323L; printed S319L in Table S1), BSF): 58 fold; EC50 ([5]; WT Tulahuen strain, intracellular amastigote in L6 cells, read-out: EC50 value): 18 ± 7 nM
